Read-outs that look alike come from different tables or passages of the source. Blank lines part the entries; values can stand above or below the compound they belong to.
Experiments:
[1] = human, in vivo
Description: Design/Methods: 11,11-D2-linoleic acid ethyl ester was administered to the patient at 2.7 g (BID) and periodic repeat assessments including baseline measurement of PK, activities of daily living (ADL), 25 foot walk time (25FWT), and 6 minute walk distance (6MWD) were made. In particular, ADLs were measured individually on a scale of 0-5 across a 12 element panel representing speech, strength, coordination, etc.

[2] = system: patient with late onset Tay-Sachs disease (LOTS); assay: Case study in a single patient with late onset Tay-Sachs disease: ADL, 25FWT, 6MWD, tolerability; assay type: in vivo, human; details: 2.7 g BID; for Composite ADL Score: baseline 0; for 25FWT: baseline 12.7
Excerpt: In this example, a case study of using 11,11-D2-linoleic acid ethyl ester to treat a single patient with late onset Tay-Sachs disease (LOTS) and the study results was reported.

murine FRDA cell model = details: cited from earlier work
[3] = system: human fibroblast FRDA model; details: cited from earlier work
[4] = female, human, in vivo
Excerpt: (§1) A study in the fatal neurodegenerative disease, Infantile Neuroaxonal Dystrophy (INAD) was initiated in March 2017. At study onset, the subject with a genetic mutation in both copies of the PLA2G6 gene, was mostly unresponsive to stimuli and unable to perform virtually any activity. All normal development milestones previously acquired had been lost. Prognosis was that a feeding tube would be required in the near term progression of the disease. The patient received dosing of a D-PUFA (11,11-D2-linoleic acid), 1.8 g twice a day, for a six month trial under an Expanded Access (Compassionate Use) protocol. As they were unable to swallow a pill, soft gels containing the D-PUFA were placed in warm liquid (water or milk), pierced with a fork, and the active oil pressed into the liquid, which was then soaked into food or a cookie, and administered.
(§2) One month and three month plasma level of deuterated polyunsaturated fatty acid was at steady state at approximately 44% total (dietary plus modified) linoleic acid, indicating excellent uptake and absorption of a therapeutic level of drug (>˜10-15%). Deuterated arachidonic acid was observed as present in the plasma at 0.6% and 3.0% of total arachidonic acid at month one and three months; respectively.

in vivo = assay: in vivo; parameters: species or system mice and rats; details: rat
Description: Single- and repeat-dose studies are conducted in mice and rats using both oral gavage and dietary administration of substituted compounds as described herein (e.g., D-PUFA and ester thereof) for up to 26 weeks. […] The NOAELs established in the 8- and 26-week studies correspond to an average consumption of the substituted compounds studied in the amount of ˜362 and ˜452 mg/kg, respectively. The high dose diets in these studies contained no natural LA. […] This is consistent with the substituted compounds as described herein (e.g., D-PUFA and ester thereof) (di-deutero linoleic acid) being, for dietary purposes, equivalent to and biologically interchangeable with normal dietary LA as a sole source of LA by the rats in this study. […] The body weights, organ weights, percent of each organ composed of PUFAs, distribution of PUFA species in each tissue, and the PUFA composition of red blood cells are not changed versus controls.

[5] = system: patient with Infantile Neuroaxonal Dystrophy (INAD), mutation in both copies of the PLA2G6 gene; assay type: in vivo, human
Excerpt: as §1
FIG. 1 summarizes the baseline and one year treatment status of the patient (degree of impairment: (0) for severely impaired, (+1) for moderately impaired, (+2) for mildly impaired or no impairment).
After 2 months on drug, […] regained sufficient bulbar function to terminate syringe feeding of liquids and returned to drinking from a child's sippy cup.
as §2
INAD is a strictly progressive disease, only worsening with time. Stabilization of regressions and recovery of lost milestones indicated effectiveness of the test treatment in a single, severely affected INAD patient.

yeast model of FRDA = details: cited from earlier work
murine model of FRDA = details: Abeti et al. 2016; cited from earlier work
H9C2 myoblasts = details: other oxidative stress paradigms; cited from earlier work

D-LA(%) D-LA + H-LA Plasma [1]: 36%
D-LA(%) D-LA + H-LA RBC [1]: 28%
Compound: [2H]C([2H])(/C=C\CCCCC)/C=C\CCCCCCCC(=O)OCC [11,11-D2-linoleic acid ethyl ester]
disease progression [2]: Early efficacy signs of inhibition of disease progression and some regression were seen
tolerability / toxicities [2]: well tolerated with no toxicities reported
# of ADLs improved ([2]; 30 d): 6
Composite ADL Score ([2]; 30 d, 12 element panel, scale 0-5): +6
25FWT ([2]; 30 d): 12.1 s
# of ADLs improved ([2]; 120 d): 8
Composite ADL Score ([2]; 120 d): +9
25FWT ([2]; 120 d): 11.2 s

Compound: [2H]C([2H])(/C=C\CCCCC)/C=C\CCCCCCCC(=O)O [11,11-D2-linoleic acid, 11,11-Dideutero-cis,cis-9,12-Octadecadienoic acid]
cell viability (murine FRDA cell model): protect cells from loss of viability
cell viability [3]: rescue cells from loss of viability
deuterated arachidonic acid in plasma, of total arachidonic acid ([4]; 1 month): 0.6%
deuterated arachidonic acid in plasma, of total arachidonic acid ([4]; 3 months): 3.0%
NOAEL at 8 weeks (in vivo): ~362 mg/kg
NOAEL at 26 weeks (in vivo): ~452 mg/kg
time to significant plasma levels and red blood cell (RBC) membrane incorporation [1]: ≤ 1 month
progression of disease, clinical examination ([5]; 3 months, since start of trial, n=1): no progression of disease
qualitative measures in videotaped sessions (eye tracking, responsiveness, head control, lifting, reaching and grasping) ([5]; after 6 months): improved in qualitative measures
drug related adverse events ([5]; human, in vivo): no drug related adverse events of any sort reported
safety and tolerability ([5]; human, in vivo): safe and well-tolerated
ability to grasp ([5]; parents' report at 4 months): regained ability to grasp spoon and hold
constipation ([5]; parents' report at 4 months): constipation resolved
eating ([5]; parents' report at 4 months): can eat (chew and swallow) food such as banana
responsiveness to verbal requests ([5]; parents' report at 4 months): newly responsive to verbal requests during therapy
salivation down ([5]; parents' report at 4 months): 99%
muscle strength ([5]; parents' report at 4 months, grasping and lifting rattle): better muscle strength
ability to swallow ([5]; parents' report at 4 months, vs. syringe feeding): regained ability to swallow using sipper cup
overall patient status ([5]; starting within a month of dosing until one year): the patient has improved

Compound: [2H]C([2H])(/C=C\CC)/C=C\C([2H])([2H])/C=C\CCCCCCCC(=O)O [D4-ALA, 11,11,14,14-Tetradeutero-cis,cis,cis-9,12,15-Octadecatrienoic acid]
cell viability (murine FRDA cell model): protect cells from loss of viability
cell viability [3]: rescue cells from loss of viability
lipid peroxidation (yeast model of FRDA): decreased lipid peroxidation
lipid peroxidation (murine model of FRDA): prevent lipid peroxidation
protection against oxidative stress (H9C2 myoblasts): protective against oxidative stress
